Measurements from patent US9073863B2, “Cyanoquinoline compounds having activity in correcting mutant-CFTR processing and increasing ion transport and uses thereof” (The Regents of the University of California, priority 2011, dated 2015).

How the values were obtained:
Assay type in all cases: cell-based
[1] = target: T1, ΔF508-CFTR (Homo sapiens, UniProt P13569, DEL508-508); experiment: Short-circuit current potentiator assay in ΔF508-CFTR expressing FRT cells after low-temperature rescue; conditions: 27° C. for 24 h prior to measurement, in the presence of forskolin; read-out: Apparent EC50 for potentiator activity as measured by short-circuit current
T1 construct: expressed in transfected cells; host or cells: Fischer rat thyroid (FRT) epithelial cells, stably transfected
Procedure: Short-circuit current measurements. ΔF508-CFTR-expressing FRT cells were cultured on Snapwell inserts for 7-9 days. For corrector testing, test compounds were incubated with FRT cells for 18-24 h at 37° C. prior to measurements. For potentiator testing, the FRT cells were incubated for 18-24 h at 27° C. prior to measurements. The basolateral solution contained 130 mM NaCl, 2.7 mM KCl, 1.5 mM KH2PO4, 1 mM CaCl2, 0.5 mM MgCl2, 10 mM glucose, and 10 mM Na-HEPES (pH 7.3). In the apical bathing solution, 65 mM NaCl was replaced by Na gluconate, and CaCl2 was increased to 2 mM. Solutions were bubbled with air and maintained at 37° C. […]
Short-circuit current measurements were performed to further characterize Compound 22 potentiator activity in which apical membrane chloride current was measured in ΔF508-CFTR expressing FRT cells, after low-temperature rescue, in response to Compound 22 additions. […]
Short-circuit current was measured in an electrophysiology assay to verify corrector activity. Apical membrane chloride current was measured in ΔF508-CFTR expressing FRT cells after basolateral membrane permeabilization and in the presence of a transepithelial chloride gradient. […] To assay potentiator activity apical membrane chloride current was measured after low-temperature rescue, in response to CP-3 addition. […]

[2] = target: T2, wildtype CFTR (Homo sapiens, UniProt P13569); experiment: Short-circuit current in FRT cells expressing wildtype CFTR; conditions: added after 0.25 or 0.5 μM forskolin
T2 construct: expressed in transfected cells; host or cells: Fischer rat thyroid (FRT) epithelial cells, stably transfected
Procedure: To further investigate Compound 22 potentiator action, short-circuit current was measured in FRT cells expressing wildtype CFTR (FIG. 5B). Studies were done as in FIG. 5A except that low concentrations of forskolin (0-0.5 μM) were used because higher concentrations fully activate wildtype CFTR and thus would mask Compound 22 potentiator action. As found for ΔF508-CFTR, there was little effect of Compound 22 in the absence of forskolin. In each experiment, after Compound 22 additions, 10 μM forskolin was added to fully activate wildtype CFTR, followed by 50 μM genistein, which had little effect, followed by 10 μM CFTRinh-172, which inhibited all chloride current.

[3] = target: T3, G551D-CFTR (Homo sapiens, UniProt P13569, G551D); experiment: Plate reader assay of G551D-CFTR chloride conductance in FRT cells; conditions: in the presence of 20 μM forskolin
T3 construct: expressed in transfected cells; host or cells: Fischer rat thyroid (FRT) epithelial cells, stably transfected
Procedure: Potentiator studies were also performed in FRT cells expressing G551D-CFTR, a CF-causing CFTR mutation with defective channel gating but not plasma membrane trafficking. […] Where indicated, genistein (100 μM) and CFTRinh-172 (10 μM) were added. Graphs are representative of 3 sets of measurements. […] Measurements were made in the presence of 20 μM forskolin.
Representative fluorescence quenching curves (FIG. 6B (top)) shown with deduced Compound 22 and genistein concentration dependence (FIG. 6B (bottom), SEM, n=4). Fluorescence plate reader assays in FIG. 6B confirmed that Compound 22 activated G551D-CFTR in the presence of forskolin, with lower maximal efficacy than genistein.

[4] = target: T1, ΔF508-CFTR; experiment: CFTR immunoblot of ΔF508-CFTR expressing FRT cells; conditions: 24 h at 37° C.
Procedure: CFTR Immunoblot. DF508-CFTR expressing FRT cells grown on 6-well plates were treated with Corr-4a ([…]), Compound 22 […] or negative control at 37° C. for 24 h. After treatment, cells were washed with PBS and lysed in 20 mM Hepes (pH 7), 150 mM NaCl, 1 mM EGTA and 1% Igepal containing Complete Protease Inhibitor Cocktail (Roche). After pre-clearing, lysates were subjected to SDS-PAGE and analyzed by immunoblot. Proteins were immunodetected using a mouse monoclonal anti-CFTR antibody (M3A7, Millipore) followed by HRP-conjugated anti-mouse IgG, and visualized by chemiluminescence (ECL Plus, Amersham).
The action of Compound 22 as corrector of defective ΔF508-CFTR cellular processing was verified by CFTR immunoblot analysis (FIG. 4C). Wildtype CFTR was detected as a strong band at 170 kDa (band C), corresponding to complex glycosylated CFTR. […] Band B, which corresponds to core-glycosylated ΔF508-CFTR, was also seen.

T2 sequence (P13569 whole entry): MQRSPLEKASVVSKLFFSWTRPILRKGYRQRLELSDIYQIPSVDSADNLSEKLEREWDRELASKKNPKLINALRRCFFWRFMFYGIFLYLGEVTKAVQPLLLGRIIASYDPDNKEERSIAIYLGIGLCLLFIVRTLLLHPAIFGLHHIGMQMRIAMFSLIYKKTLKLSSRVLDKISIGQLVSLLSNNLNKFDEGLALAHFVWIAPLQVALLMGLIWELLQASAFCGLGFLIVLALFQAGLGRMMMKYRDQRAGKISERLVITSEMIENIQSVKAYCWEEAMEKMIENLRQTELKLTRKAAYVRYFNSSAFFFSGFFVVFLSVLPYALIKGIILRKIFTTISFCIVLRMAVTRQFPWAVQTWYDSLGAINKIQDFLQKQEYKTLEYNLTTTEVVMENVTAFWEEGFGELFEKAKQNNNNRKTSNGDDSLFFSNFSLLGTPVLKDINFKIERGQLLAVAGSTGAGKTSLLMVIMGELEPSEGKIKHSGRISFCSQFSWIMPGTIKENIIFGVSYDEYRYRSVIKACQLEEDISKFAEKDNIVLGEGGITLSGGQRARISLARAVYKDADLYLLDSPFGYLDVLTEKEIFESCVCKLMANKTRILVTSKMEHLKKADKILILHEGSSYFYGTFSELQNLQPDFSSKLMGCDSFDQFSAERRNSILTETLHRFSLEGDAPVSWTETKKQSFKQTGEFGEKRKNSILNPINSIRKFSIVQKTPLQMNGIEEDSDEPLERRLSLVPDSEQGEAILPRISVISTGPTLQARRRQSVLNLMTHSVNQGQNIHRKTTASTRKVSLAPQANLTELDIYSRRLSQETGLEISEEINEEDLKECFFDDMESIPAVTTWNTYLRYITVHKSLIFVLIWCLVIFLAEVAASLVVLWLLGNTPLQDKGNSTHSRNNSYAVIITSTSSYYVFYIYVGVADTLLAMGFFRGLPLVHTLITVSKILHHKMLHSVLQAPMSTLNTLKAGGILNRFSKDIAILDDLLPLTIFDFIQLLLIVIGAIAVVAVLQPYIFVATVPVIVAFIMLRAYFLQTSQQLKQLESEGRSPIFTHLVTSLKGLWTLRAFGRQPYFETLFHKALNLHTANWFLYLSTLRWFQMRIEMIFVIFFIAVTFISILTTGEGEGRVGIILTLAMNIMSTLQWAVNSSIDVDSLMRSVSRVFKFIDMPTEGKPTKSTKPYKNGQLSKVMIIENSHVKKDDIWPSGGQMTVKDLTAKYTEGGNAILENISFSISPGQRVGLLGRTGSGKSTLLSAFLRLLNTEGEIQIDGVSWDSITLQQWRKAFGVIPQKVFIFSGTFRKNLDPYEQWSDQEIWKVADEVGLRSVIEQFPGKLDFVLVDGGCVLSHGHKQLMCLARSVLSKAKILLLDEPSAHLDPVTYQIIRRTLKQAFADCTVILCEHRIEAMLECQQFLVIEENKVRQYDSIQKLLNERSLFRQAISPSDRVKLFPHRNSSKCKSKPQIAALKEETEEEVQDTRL
T3 sequence (P13569 whole entry G551D): as the sequence (P13569 whole entry) above, with G551D counted along it
T1 sequence (P13569 with tags, fused parts or gaps DEL508-508): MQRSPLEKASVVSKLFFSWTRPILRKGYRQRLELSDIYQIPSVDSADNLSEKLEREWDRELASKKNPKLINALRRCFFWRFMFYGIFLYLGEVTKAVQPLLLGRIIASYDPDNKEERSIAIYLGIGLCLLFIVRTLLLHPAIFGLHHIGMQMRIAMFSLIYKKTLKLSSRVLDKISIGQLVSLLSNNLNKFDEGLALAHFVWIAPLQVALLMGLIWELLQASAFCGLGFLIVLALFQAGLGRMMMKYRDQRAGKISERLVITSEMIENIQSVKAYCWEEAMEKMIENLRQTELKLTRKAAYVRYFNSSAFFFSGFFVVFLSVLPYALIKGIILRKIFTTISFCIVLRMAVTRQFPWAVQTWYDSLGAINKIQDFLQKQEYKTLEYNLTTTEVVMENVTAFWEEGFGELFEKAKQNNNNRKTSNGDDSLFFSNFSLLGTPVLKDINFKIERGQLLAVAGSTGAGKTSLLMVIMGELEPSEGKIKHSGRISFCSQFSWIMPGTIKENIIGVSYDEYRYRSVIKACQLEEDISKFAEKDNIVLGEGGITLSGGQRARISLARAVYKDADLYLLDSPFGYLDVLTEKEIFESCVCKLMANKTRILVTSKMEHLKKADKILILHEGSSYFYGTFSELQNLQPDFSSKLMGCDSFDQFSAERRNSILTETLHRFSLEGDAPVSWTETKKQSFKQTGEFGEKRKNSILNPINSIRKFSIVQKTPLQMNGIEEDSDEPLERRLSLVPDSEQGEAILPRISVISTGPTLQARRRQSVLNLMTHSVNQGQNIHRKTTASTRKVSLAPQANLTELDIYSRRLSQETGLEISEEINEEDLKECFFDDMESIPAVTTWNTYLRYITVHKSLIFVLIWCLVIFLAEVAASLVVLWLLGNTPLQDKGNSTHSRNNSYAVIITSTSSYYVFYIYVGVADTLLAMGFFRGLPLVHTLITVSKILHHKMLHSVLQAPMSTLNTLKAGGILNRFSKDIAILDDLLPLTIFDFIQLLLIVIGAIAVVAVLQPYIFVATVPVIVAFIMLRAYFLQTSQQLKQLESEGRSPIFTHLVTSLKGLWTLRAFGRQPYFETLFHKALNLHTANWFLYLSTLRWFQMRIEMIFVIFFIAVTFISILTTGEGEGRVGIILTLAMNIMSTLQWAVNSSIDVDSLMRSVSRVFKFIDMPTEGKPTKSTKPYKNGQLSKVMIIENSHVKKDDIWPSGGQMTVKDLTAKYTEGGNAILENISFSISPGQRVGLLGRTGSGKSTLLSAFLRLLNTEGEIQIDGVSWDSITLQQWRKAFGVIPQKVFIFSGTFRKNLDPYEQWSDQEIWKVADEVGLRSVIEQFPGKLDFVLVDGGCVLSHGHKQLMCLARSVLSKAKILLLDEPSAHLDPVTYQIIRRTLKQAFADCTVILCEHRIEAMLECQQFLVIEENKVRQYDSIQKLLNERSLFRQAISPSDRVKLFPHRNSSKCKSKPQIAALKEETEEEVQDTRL

Question: For `COc1cccc(C(=O)NCCNc2nc3cc(C)cc(C)c3cc2C#N)c1` [Compound 22, N-(2-((3-Cyano-5,7-dimethylquinolin-2-yl)amino)ethyl)-3-methoxybenzamide], which EC50 [1] is on record?
Answer: Its EC50 is ~10 µM.

Question: What about the “activation of wildtype CFTR, in words” value [2] of the same compound?
Answer: The value was “partially activated”.

Question: What about the EC50 ([2]; read-out: EC50 of wildtype CFTR activation) of the same compound?
Answer: Its EC50 is ~10 µM.

Question: And the “maximum efficacy of G551D-CFTR activation” value [3]?
Answer: Its value is “lower than that of genistein”.

Question: And the EC50 ([3]; read-out: Apparent EC50 for activation of G551-CFTR)?
Answer: Its EC50 is ~5 µM.

Question: And the “complex glycosylated CFTR (band C) in immunoblot” value [4]?
Answer: The value was “band C was visualized”.
